The values below come from patent publication US7250304B2, “Functional assay of high-density lipoprotein” (The Regents of the University of California, priority 2000, dated 2007).

One test relates to HAEC monolayers. The test can be described thus: Monocyte adhesion assay. The conditions noted are these: LDL 1 mg/ml incubated with apo A-I 100 μg/ml 2 hrs, re-isolated. The test is classed as cell-based, human. The method, then: In brief, HAEC monolayers, in 48-well tissue culture plates were incubated with the desired LDL or phospholipid for 4 hrs at 37° C. as described (Watson et al. (1995) J. Clin. Invest. 96: 2882-2891). After washing, a suspension of human peripheral blood monocytes was added and incubated for 10 min. The loosely adherent monocytes were then washed away, the monolayers were fixed and the number of adherent monocytes counted in 9 high power microscopic fields.
Freshly isolated LDL (250 μg) was incubated with pure 13(S)-HPODE (1.0 μg) in 10% LPDS in M 199 for 4 hrs at 37° C. with gentle mixing. LDL was re-isolated by centrifugation and was incubated with monolayers of human aortic endothelial cells. […] The endothelial monolayer was washed after each time point and a monocyte suspension was added, incubated, washed, and the number of adherent monocytes determined.
Freshly isolated LDL (250 μg) was incubated with 10 units of pure soybean lipoxygenase bound to sepharose beads for 4 hrs at 37° C. with gentle mixing. […] The endothelial monolayer was washed after each time point and monocyte adhesion determined.
Blood samples were collected from patients referred to the cardiac catheterization laboratory at The Center for Health Sciences at the University of California, Los Angeles. […] The HDL-Ox-PAPC mixture was then added to endothelial monolayers and monocyte binding was determined.

Test [1] deals with fibroblasts over expressing 15-LO. The test can be described thus: Removal of 13(S)-HPODE by apo A-I from fibroblasts over expressing 15-LO. The conditions noted are these: apo A-I 100 μg/ml, 3 hrs. The test is classed as cell-based. The method, then:
Fibroblasts that were transfected with vector alone or cells that over expressed 15-LO were a generous gift of Drs. Joe Witztum and Peter Reaven. In the present experiments, the fibroblasts were incubated with or without 100 μg/ml apo A-I. Following 3 hrs of incubation at 37° C. with gentle mixing, the culture supernatants were removed, apo A-I was separated by FPLC and the level of hydroperoxides determined in lipid extracts of the culture supernatants and in lipid extracts of apo A-I.

As for “apo A-I: Human apo A-I from Sigma, major apolipoprotein of HDL; infused into humans as apo A-I/phosphatidylcholine discs”, the “monocyte adherence induced by LDL after A-I” value in the test on HAEC monolayers was “did not stimulate monocyte adherence”. Further, the “13-HPODE equivalents in lipid extracts of apo A-I, cells over expressing LO vs control cells” value in test [1] is on record as 5.1 fold.
